# Like-named read-outs stand apart in the source and are kept apart here.
# Key:
# F. trinervia PEPC = biological target: T1, F. trinervia PEPC (Flaveria trinervia, UniProt P30694); assay: biochemical; type: biochemical; details: C4 PEPC; read-out: IC50 F. trinervia PEPC
# T1 construct: the full-length ppcA gene of PEPC from F. trinervia (EMBL-Bank X61304); made in house; host or cells: Escherichia coli BL21(DE3)
# T1 sequence (P30694 1-966): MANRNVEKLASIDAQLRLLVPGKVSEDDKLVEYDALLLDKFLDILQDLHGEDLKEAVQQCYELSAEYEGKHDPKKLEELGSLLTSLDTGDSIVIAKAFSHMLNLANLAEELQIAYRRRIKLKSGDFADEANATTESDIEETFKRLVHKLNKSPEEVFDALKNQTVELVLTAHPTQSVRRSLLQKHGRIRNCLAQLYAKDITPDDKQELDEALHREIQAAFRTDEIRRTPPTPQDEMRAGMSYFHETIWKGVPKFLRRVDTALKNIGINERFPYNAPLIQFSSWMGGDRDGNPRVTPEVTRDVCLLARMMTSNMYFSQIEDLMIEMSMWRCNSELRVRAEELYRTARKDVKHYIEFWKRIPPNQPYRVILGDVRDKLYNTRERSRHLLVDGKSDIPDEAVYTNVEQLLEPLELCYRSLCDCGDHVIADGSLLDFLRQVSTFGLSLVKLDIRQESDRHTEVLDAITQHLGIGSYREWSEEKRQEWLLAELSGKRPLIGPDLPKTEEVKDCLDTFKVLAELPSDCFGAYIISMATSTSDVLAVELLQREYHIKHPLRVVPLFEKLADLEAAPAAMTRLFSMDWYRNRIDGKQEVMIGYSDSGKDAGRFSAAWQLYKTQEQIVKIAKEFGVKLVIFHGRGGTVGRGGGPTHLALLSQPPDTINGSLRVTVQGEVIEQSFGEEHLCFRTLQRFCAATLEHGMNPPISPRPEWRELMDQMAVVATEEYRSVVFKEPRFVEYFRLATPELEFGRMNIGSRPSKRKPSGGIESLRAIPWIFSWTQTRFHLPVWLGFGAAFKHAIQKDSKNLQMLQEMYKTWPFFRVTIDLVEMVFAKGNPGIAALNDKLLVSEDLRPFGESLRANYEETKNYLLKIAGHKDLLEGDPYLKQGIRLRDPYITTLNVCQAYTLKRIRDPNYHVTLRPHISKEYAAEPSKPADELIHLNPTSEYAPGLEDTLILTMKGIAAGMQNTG
# [1] = system: Escherichia coli K-12 MG1655; assay: Bacterial growth in microscale cultivation, E. coli; type: cell-based; details: relative to control; for activity at 55 µM / activity at 550 µM: Escherichia coli
# Procedure, shortened: (§1)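 Inhibitors in DMSO were added to the medium, at a maximum of 400 μM for trans-chalcone and 100 μM for 2'-hydroxychalcone. Cultures were seeded at OD600 0.5, or 0.25 for B. subtilis, and growth was followed as 620 nm backscatter in a BioLector at 1200 rpm. Final backscatter, growth rate and lag phase were compared with DMSO controls.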
# [2] = system: Pseudomonas putida KT2440; assay: Bacterial growth in microscale cultivation, P. putida; type: cell-based; details: relative to control; for activity at 55 µM / activity at 550 µM: Pseudomonas putida
# Procedure, shortened: as §1
# Bacillus subtilis 168 = assay: Bacterial growth in microscale cultivation, B. subtilis; type: cell-based; details: for activity at 55 µM / activity at 110 µM / activity at 550 µM / Lag Phase: relative to control; for Influence on bacterial growth: highest concentration tested (10× IC50) if not stated otherwise
# Procedure, shortened: as §1
smiles,measurement,setting,value
"O=C(/C=C/c1ccccc1)c1cc(O)ccc1O [Compound 5, 2′,5′-Dihydroxychalcone]",IC50,F. trinervia PEPC,42.1 ± 11.3 µM
same,activity at 55 µM,"[1]; MG1655, complex medium, 55 µM, read-out: Final Backscatter",101%
same,activity at 55 µM,"[1]; MG1655, complex medium, 55 µM, read-out: Growth rate",103%
same,activity at 550 µM,"[1]; MG1655, complex medium, 550 µM, read-out: Final Backscatter",103%
same,activity at 55 µM,"[1]; MG1655, minimal medium, 55 µM, read-out: Final Backscatter",99.1%
same,activity at 55 µM,"[1]; MG1655, minimal medium, 55 µM, read-out: Growth rate",122%
same,activity at 550 µM,"[1]; MG1655, minimal medium, 550 µM, read-out: Final Backscatter",96.4%
same,Lag Phase,"[1]; complex medium, 55 µM","103,1%"
same,Lag Phase,"[1]; complex medium, 550 µM","117,2%"
same,Lag Phase,"[1]; minimal medium, 55 µM","105,9%"
same,Lag Phase,"[1]; minimal medium, 550 µM","103,0%"
same,activity at 55 µM,"[2]; KT2440, complex medium, 55 µM, read-out: Final Backscatter",98.5%
same,activity at 55 µM,"[2]; KT2440, complex medium, 55 µM, read-out: Growth rate",105%
same,activity at 550 µM,"[2]; KT2440, complex medium, 550 µM, read-out: Final Backscatter",94.4%
same,activity at 550 µM,"[2]; KT2440, complex medium, 550 µM, read-out: Growth rate",118%
same,activity at 55 µM,"[2]; KT2440, minimal medium, 55 µM, read-out: Final Backscatter",95.5%
same,activity at 55 µM,"[2]; KT2440, minimal medium, 55 µM, read-out: Growth rate",99.4%
same,activity at 550 µM,"[2]; KT2440, minimal medium, 550 µM, read-out: Final Backscatter",96.7%
same,activity at 550 µM,"[2]; KT2440, minimal medium, 550 µM, read-out: Growth rate",101%
same,Lag Phase,"[2]; complex medium, 55 µM","99,1%"
same,Lag Phase,"[2]; complex medium, 550 µM","105,0%"
same,Lag Phase,"[2]; minimal medium, 55 µM","101,0%"
same,Lag Phase,"[2]; minimal medium, 550 µM","98,0%"
same,growth,"Bacillus subtilis 168; 550 μM, minimal media",abolished growth
same,activity at 55 µM,"Bacillus subtilis 168; Bacillus subtilis, 168, complex medium, 55 µM, read-out: Final Backscatter",96.2%
same,activity at 55 µM,"Bacillus subtilis 168; Bacillus subtilis, 168, complex medium, 55 µM, read-out: Growth rate",108%
same,activity at 110 µM,"Bacillus subtilis 168; Bacillus subtilis, 168, complex medium, 110 µM, read-out: Final Backscatter",98%
same,activity at 110 µM,"Bacillus subtilis 168; Bacillus subtilis, 168, complex medium, 110 µM, read-out: Growth rate",108%
same,activity at 550 µM,"Bacillus subtilis 168; Bacillus subtilis, 168, complex medium, 550 µM, read-out: Final Backscatter",76.3%
same,activity at 55 µM,"Bacillus subtilis 168; Bacillus subtilis, 168, minimal medium, 55 µM, read-out: Final Backscatter",96.4%
same,activity at 55 µM,"Bacillus subtilis 168; Bacillus subtilis, 168, minimal medium, 55 µM, read-out: Growth rate",107%
same,activity at 110 µM,"Bacillus subtilis 168; Bacillus subtilis, 168, minimal medium, 110 µM, read-out: Final Backscatter",102%
same,activity at 110 µM,"Bacillus subtilis 168; Bacillus subtilis, 168, minimal medium, 110 µM, read-out: Growth rate",110%
same,activity at 550 µM,"Bacillus subtilis 168; Bacillus subtilis, 168, minimal medium, 550 µM, read-out: Final Backscatter",30.5%
same,Influence on bacterial growth,Bacillus subtilis 168; Complex medium,fbs↓ lag↑
same,Influence on bacterial growth,Bacillus subtilis 168; Minimal medium,no growth (10× IC50)
same,Lag Phase,"Bacillus subtilis 168; complex medium, 55 µM","102,3%"
same,Lag Phase,"Bacillus subtilis 168; complex medium, 110 µM","109,3%"
same,Lag Phase,"Bacillus subtilis 168; complex medium, 550 µM","177,1%"
same,Lag Phase,"Bacillus subtilis 168; minimal medium, 55 µM","103,5%"
same,Lag Phase,"Bacillus subtilis 168; minimal medium, 110 µM","108,5%"

# From paper PMC4893628, “Chalcone-based Selective Inhibitors of a C4 Plant Key Enzyme as Novel Potential Herbicides” (Scientific Reports, 2016)
